Source: patent publication US20240319166A1, “Genetically-encoded volatile synthetic biomarkers for breath-based cancer detection” (The Board of Trustees of the Leland Stanford Junior …, priority 2021, published 2024)

Legend:
[1] = Quantitation of limonene evolution from limonene-injected mice (closed chamber, SIFT-MS); type: in vivo
Protocol: Having observed robust limonene expression in transfected HeLa cells in culture, the feasibility of detecting limonene in exhaled breath from rodents was then tested. A standard curve relating limonene concentration in chamber headspace to the quantity of limonene spiked into 0.5-L chambers was generated. To determine the fraction of limonene in mice that was emitted into the headspace, mice were injected intraperitoneally with different quantities of a limonene standard solution (from 0.01 μg to 1 mg) and individual mice were placed in a closed chamber for 15 minutes, at which point headspace limonene concentrations were measured by SIFT-MS (FIG. 4A and FIG. 4B).
Using the standard curve, the mass of limonene exhaled by mice at each quantity injected was determined and the fraction exhaled was calculated. At the LOD (0.5 ppb), limonene in the chamber headspace became detectable when 2.3 ng had been spiked into the chamber, whereas limonene evolving from mice only became detectable at an injected dose of 450 ng (FIG. 4B, Supplementary Calculations shown in Example 2, infra). […]
Prior to mouse studies, a calibration curve was generated. Known limonene quantities (10 μg to 100 μg) were added to 10 mL of water in […] (Kent Scientific, Torrington, CT). […]

[2] = cited from earlier work

Question: With `C=C(C)[C@H]1CC=C(C)CC1` [limonene] as the molecule, how does the “fraction of injected limonene emitted into the chamber headspace” value ([1]; intraperitoneal injection, 0.5-L chamber, within 15 minutes) read?
Answer: ~0.5%

Question: What about the “injected dose at which limonene evolving from mice became detectable” value ([1]; intraperitoneal, at the LOD (0.5 ppb), 15 minutes) of the same molecule?
Answer: 450 ng

Question: And the safe oral dose [2]?
Answer: ≤ 100 mg/kg

Question: What about the “safe oral dose for an average 70 kg adult” value [2] of the same molecule?
Answer: ~7 g
